Measurements published in US6433015B1, “Method for reducing body weight” (IPR-Institute for Pharmaceutical Research AG, priority 1997, dated 2002).

Columns and labels:
[1] = cited from earlier work
[2] = 7-month study on body weight loss in 22 test persons administered creatine; assay type: in vivo, human
Description: An experiment was carried out with 22 test persons in order to confirm the weight reducing effect of creatine using the dosage according to the invention. The test persons were instructed for the duration of the experiment not to change their day-to-day habits (diet and physical exercise). In order to find the optimal dosage the test persons were initially divided into three groups with a daily dosage of either 100 mg, 300 mg or 600 mg of creatine. […] The data are reported as so-called body mass index (BMI), which is calculated from the body weight in dilograms divided by the height in meters in square.

CN(CC(=O)O)C(=N)N [creatine, N-Amidinosarcosine]
body weight ([1]; daily dosage of at least 15 g to 30 g (0.2 g to 0.4 g per kilogram body weight), physically active test persons, WO 94/02127, Sahelian, Gremion): enhancement of body weight | fat mass ([1]; high-dose creatine with high muscle strain, Sahelian 1997, Gremion 1995): the fat mass is decreased | body weight, reported as body mass index (BMI) ([2]; 7-month study, 22 test persons, after the 3 months dosage-finding period, single daily dose of 100 mg): a steady decrease of body weight occured | weight loss in dosage-finding period ([2]; groups with daily dosage of 100 mg, 300 mg or 600 mg of creatine, after 3 months, diet and physical exercise unchanged): the group with 100 mg had shown the most noticeable weight loss
